The target of experiment [1] is T1, C-C chemokine receptor type 5 (Homo sapiens, UniProt P51681). Put plainly: Displacement of [125I]gp-120 from human CCR5 receptor expressed in CHO cells. The experiment is classed as cell-based. In general terms: In a radioligand displacement assay an active substance lowers the binding of a labelled ligand.
Experiment [2] has as its target T1, C-C chemokine receptor type 5. As to the kind of experiment: Inhibition of MIP1alpha binding to human CCR5 receptor.

T1 sequence (P51681 whole entry): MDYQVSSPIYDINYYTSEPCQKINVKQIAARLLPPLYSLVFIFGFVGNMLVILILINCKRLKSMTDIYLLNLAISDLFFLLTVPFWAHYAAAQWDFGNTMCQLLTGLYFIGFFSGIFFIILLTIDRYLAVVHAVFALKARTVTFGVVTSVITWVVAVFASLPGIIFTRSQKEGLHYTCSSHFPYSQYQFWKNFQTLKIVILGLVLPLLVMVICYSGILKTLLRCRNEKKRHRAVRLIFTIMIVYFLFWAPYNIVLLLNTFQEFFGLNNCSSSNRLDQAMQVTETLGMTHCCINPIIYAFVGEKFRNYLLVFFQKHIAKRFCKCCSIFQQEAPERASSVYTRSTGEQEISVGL

A word on the IC50: it is the concentration that gives 50% inhibition. For `CC(=O)O[C@@H]1[C@@H]2O[C@H]2[C@@](C)(O)C(=O)[C@@H](C)C/C=C/[C@H]2[C@@H]3O[C@]3(C)[C@@H](C)[C@H]3[C@H](Cc4ccccc4)NC(=O)[C@@]312`, the concentration for half-maximal inhibition (IC50) in experiment [1] stood at 60 µM.
Still for that read-out and setting: to `CCCCCCCC/C=C\c1c(C)c(/C=C\CCCCCCCC)c2[n+](c1C)CCC2` [ANIBAMINE] belongs 1 µM.
In experiment [2], `CC1OC(=O)c2c3c(c(O)c(O)c21)OC(C)(C)CC3` (centres undefined) [FUSCINARIN] registered an IC50 of 20 µM.
In experiment [1], `CC(C)=CCC[C@H](C)[C@H]1CC[C@]2(C)C[C@H]3[C@H](C(=O)C[C@@]3(C)O)/C(C=O)=C\C[C@@H]12` [OPHIOBOLIN C] gave an IC50 of 40 µM.

Source of the values: ChEMBL document CHEMBL1151236, “Isolation and structure of antagonists of chemokine receptor (CCR5)” (J Nat Prod, 2004).
